Experimental data published in PMC11898290, “TFEB promotes Ginkgetin-induced ferroptosis via TRIM25 mediated GPX4 lysosomal degradation in EGFR wide-type lung adenocarcinoma” (Theranostics, 2025).

Assays:
[1] = target: T1, TFEB-GFP (pcDNA3.1-TFEB-GFP) (Homo sapiens, UniProt P19484); test: microscale thermophoresis, GFP-fusion in cell lysate; format: binding
T1 sequence (P19484 1-476): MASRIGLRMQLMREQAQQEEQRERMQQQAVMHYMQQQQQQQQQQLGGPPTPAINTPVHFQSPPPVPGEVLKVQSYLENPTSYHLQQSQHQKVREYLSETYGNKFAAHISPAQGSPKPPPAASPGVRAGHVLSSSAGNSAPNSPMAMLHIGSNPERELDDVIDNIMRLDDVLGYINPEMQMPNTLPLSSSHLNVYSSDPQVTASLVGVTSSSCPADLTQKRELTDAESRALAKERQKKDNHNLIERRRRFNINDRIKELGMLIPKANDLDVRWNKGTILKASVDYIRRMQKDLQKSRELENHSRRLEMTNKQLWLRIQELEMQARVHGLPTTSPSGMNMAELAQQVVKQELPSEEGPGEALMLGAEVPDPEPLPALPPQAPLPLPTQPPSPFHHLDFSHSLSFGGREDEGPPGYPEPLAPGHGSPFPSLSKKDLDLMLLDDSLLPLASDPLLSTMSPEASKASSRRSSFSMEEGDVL

TFEB = target: T2, TFEB (Homo sapiens, UniProt P19484); test: SPR, Biacore S200, CM5 chip, steady-state fit; format: binding; conditions: 10 mM HEPES pH 7.4, 150 mM NaCl, 0.05% P20, 2% DMSO, 25 °C; GK 0.137-100 µM
T2 construct: TFEB protein amine-coupled on CM5 chip (about 6500 RU)
T2 sequence (P19484 1-476): T1 sequence (P19484 1-476)

COc1cc(O)c2c(=O)cc(-c3ccc(OC)c(-c4c(O)cc(O)c5c(=O)cc(-c6ccc(O)cc6)oc45)c3)oc2c1 [ginkgetin]
Kd [1]: 28 µM | Kd (TFEB): The binding affinity of GK to TFEB was determined by the SPR assay.
